# Test results: patent US3989687A, “4-Oxo-1-pyridinyl penicillin derivatives” (Richardson-Merrell Inc., priority 1975, dated 1976)
# Structures can show the parent of a compound that is named as a salt. Where two headings read alike, the source gives them in different places.
# How the values were obtained:
# [1] = test system: Streptococcus pyogenes; test: in vitro agar plate filter paper disc test, zones of inhibition: Streptococcus pyogenes; format: cell-based; conditions: read-out: Minimal inhibiting concentration, Streptococcus pyogenes
# Description: (§1) Specific nutrient agar plates are completely innoculated with the various test organisms. Filter paper discs are placed on the surface of the agar and wetted with 0.1 ml. of a solution containing 10, 100 and 1,000 micrograms of the test compound. Zones of inhibition of microbial growth are used to indicate the antibacterial activity of the test compound against the various test organisms employed.
# (§2) The following table summarizes the in vitro activity of the following representative compounds: 6-[2-(4-oxo-1-pyridinyl)acetylamino]penicillanicacid, sodium salt (1), 7-[2-(4-oxo-1-pyridinyl)acetylamino]desacetoxycephalosporanic acid (2), 6-[2-(3,5-diiodo-4-oxo-1-pyridinyl)acetylamino]penicillanic acid, sodium salt (3), 7-[2-(2,6-dimethyl-4-oxo-1-pyridinyl)acetylamino]desacetoxycephalosporanicacid, sodium salt (4), 7-[2-(4-oxo-1-pyridinyl)acetylamino]cephalosporanicacid, sodium salt (5) and 6-[2-(4-oxo-1-quinolinyl)acetylamino]penicillanic acid, sodium salt (6).
# [2] = acid resistance; format: physicochemical
# [3] = test system: (Penicillinase Producing) Staphylococcus aureus; test: in vitro agar plate filter paper disc test, zones of inhibition: penicillinase producing Staphylococcus aureus; format: cell-based; conditions: read-out: Minimal inhibiting concentration, (Penicillinase Producing) Staphylococcus aureus
# Description: as §1, §2
# [4] = test system: Salmonella schottmuelleri; test: in vitro agar plate filter paper disc test, zones of inhibition: Salmonella schottmuelleri; format: cell-based; conditions: read-out: Minimal inhibiting concentration, Salmonella schottmuelleri
# Description: as §1, §2
# [5] = test system: Staphylococcus aureus; test: in vitro agar plate filter paper disc test, zones of inhibition: Staphylococcus aureus; format: cell-based; conditions: read-out: Minimal inhibiting concentration, Staphylococcus aureus
# Description: as §1, §2
# [6] = in vitro, 0.1 ml. of a solution containing 10, 100 and 1,000 micrograms on filter paper discs
# [7] = in vitro, penicillinase producing strain, 0.1 ml. of a solution containing 10, 100 and 1,000 micrograms on filter paper discs
Structure (SMILES),MIC [1] [µg/mL],Acid Resistance [2],MIC [3] [µg/mL],MIC [4] [µg/mL],MIC [5] [µg/mL],"MIC [1, 6] [µg/mL]","MIC [3, 7] [µg/mL]","MIC [4, 6] [µg/mL]","MIC [5, 6] [µg/mL]"
"CC1(C)S[C@@H]2C(NC(=O)Cn3ccc(=O)c4ccccc43)C(=O)N2[C@H]1C(=O)[O-].[Na+] (stereo partly drawn) [(6), 6-[2-(4-oxo-1-quinolinyl)acetylamino]penicillanic acid, sodium salt]",1000,Yes,1000,100,10,–,–,–,–
"CC1=C(C(=O)O)N2C(=O)C(NC(=O)Cn3c(C)cc(=O)cc3C)C2SC1 (stereo not drawn) [(4), 7-[2-(2,6-dimethyl-4-oxo-1-pyridinyl)acetylamino]desacetoxycephalosporanicacid, sodium salt]",–,Yes,–,–,–,> 1000,> 1000,> 1000,1000
"CC1(C)S[C@@H]2C(NC(=O)Cn3ccc(=O)cc3)C(=O)N2[C@H]1C(=O)[O-].[Na+] (stereo partly drawn) [(1), 6-[2-(4-oxo-1-pyridinyl)acetylamino]penicillanicacid, sodium salt]",1000,Yes,1000,100,10,–,–,–,–
"CC1(C)S[C@@H]2C(NC(=O)Cn3cc(I)c(=O)c(I)c3)C(=O)N2[C@H]1C(=O)[O-].[Na+] (stereo partly drawn) [(3), 6-[2-(3,5-diiodo-4-oxo-1-pyridinyl)acetylamino]penicillanic acid, sodium salt]",> 1000,Yes,> 1000,100,10,–,–,–,–
"CC(=O)OCC1=C(C(=O)O)N2C(=O)C(NC(=O)Cn3ccc(=O)cc3)C2SC1 (stereo not drawn) [(5), 7-[2-(4-oxo-1-pyridinyl)acetylamino]cephalosporanicacid, sodium salt]",–,Yes,–,–,–,100,1000,100,10
"CC1=C(C(=O)O)N2C(=O)C(NC(=O)Cn3ccc(=O)cc3)C2SC1 (stereo not drawn) [(2), 7-[2-(4-oxo-1-pyridinyl)acetylamino]desacetoxycephalosporanic acid]",–,Yes,–,–,–,1000,> 1000,> 1000,1000
